{
  "source": "PubChem BioAssay (NCI)",
  "assay_in_all_cases": "NCI anticancer screen, dose series, 384-well format",
  "key": {"786-0 renal": {"test_system": "786-0 renal"}, "A498 renal": {"test_system": "A498 renal"}, "A549 NSCLC": {"test_system": "A549 NSCLC"}, "ACHN renal": {"test_system": "ACHN renal"}, "BT-549 breast": {"test_system": "BT-549 breast"}, "CAKI-1 renal": {"test_system": "CAKI-1 renal"}, "CCRF-CEM leukemia": {"test_system": "CCRF-CEM leukemia"}, "COLO 205 colon": {"test_system": "COLO 205 colon"}, "DU-145 prostate": {"test_system": "DU-145 prostate"}, "HCC-2998 colon": {"test_system": "HCC-2998 colon"}, "HCT-116 colon": {"test_system": "HCT-116 colon"}, "HCT-15 colon": {"test_system": "HCT-15 colon"}, "HL-60(TB) leukemia": {"test_system": "HL-60(TB) leukemia"}, "HOP-62 NSCLC": {"test_system": "HOP-62 NSCLC"}, "HS 578T breast": {"test_system": "HS 578T breast"}, "HT29 colon": {"test_system": "HT29 colon"}, "IGROV1 ovarian": {"test_system": "IGROV1 ovarian"}, "K-562 leukemia": {"test_system": "K-562 leukemia"}, "KM12 colon": {"test_system": "KM12 colon"}, "LOX IMVI melanoma": {"test_system": "LOX IMVI melanoma"}, "M14 melanoma": {"test_system": "M14 melanoma"}, "MALME-3M melanoma": {"test_system": "MALME-3M melanoma"}, "MCF7 breast": {"test_system": "MCF7 breast"}, "MDA-MB-231 breast": {"test_system": "MDA-MB-231 breast"}, "MDA-MB-435 melanoma": {"test_system": "MDA-MB-435 melanoma"}, "MDA-MB-468 breast": {"test_system": "MDA-MB-468 breast"}, "MOLT-4 leukemia": {"test_system": "MOLT-4 leukemia"}, "NCI-H23 lung": {"test_system": "NCI-H23 lung"}, "NCI-H322M lung": {"test_system": "NCI-H322M lung"}, "NCI-H460 NSCLC": {"test_system": "NCI-H460 NSCLC"}, "NCI-H522 lung": {"test_system": "NCI-H522 lung"}, "OVCAR-3 ovarian": {"test_system": "OVCAR-3 ovarian"}, "OVCAR-5 ovarian": {"test_system": "OVCAR-5 ovarian"}, "OVCAR-8 ovarian": {"test_system": "OVCAR-8 ovarian"}, "PC-3 prostate": {"test_system": "PC-3 prostate"}, "RPMI-8226 leukemia": {"test_system": "RPMI-8226 leukemia"}, "RXF 393 renal": {"test_system": "RXF 393 renal"}, "SF-268 CNS": {"test_system": "SF-268 CNS"}, "SF-295 CNS": {"test_system": "SF-295 CNS"}, "SF-539 CNS": {"test_system": "SF-539 CNS"}, "SK-MEL-28 melanoma": {"test_system": "SK-MEL-28 melanoma"}, "SK-MEL-5 melanoma": {"test_system": "SK-MEL-5 melanoma"}, "SK-OV-3 ovarian": {"test_system": "SK-OV-3 ovarian"}, "SN12C renal": {"test_system": "SN12C renal"}, "SNB-19 CNS": {"test_system": "SNB-19 CNS"}, "SNB-75 CNS": {"test_system": "SNB-75 CNS"}, "SR leukemia": {"test_system": "SR leukemia"}, "SW-620 colon": {"test_system": "SW-620 colon"}, "T-47D breast": {"test_system": "T-47D breast"}, "TK-10 renal": {"test_system": "TK-10 renal"}, "U251 glioblastoma": {"test_system": "U251 glioblastoma"}, "UACC-62 melanoma": {"test_system": "UACC-62 melanoma"}, "UO-31 renal": {"test_system": "UO-31 renal"}},
  "note": "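GI50 is the concentration that inhibits growth by half. Definition used: TGI = concentration required for complete inhibition of growth.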",
  "data": [
    {"smiles": "O=c1[nH]cc(F)c(=O)[nH]1", "values": [
      {"measurement": "GI50", "setting": "786-0 renal", "value": 9.77, "unit": "µM"},
      {"measurement": "GI50", "setting": "A498 renal", "value": 5.89, "unit": "µM"},
      {"measurement": "GI50", "setting": "A549 NSCLC", "value": 2.21, "unit": "µM"},
      {"measurement": "GI50", "setting": "ACHN renal", "value": 11.6, "unit": "µM"},
      {"measurement": "GI50", "setting": "BT-549 breast", "value": 3.96, "unit": "µM"},
      {"measurement": "GI50", "setting": "CAKI-1 renal", "value": 9.98, "unit": "µM"},
      {"measurement": "GI50", "setting": "CCRF-CEM leukemia", "value": "> 27.9", "unit": "µM"},
      {"measurement": "GI50", "setting": "COLO 205 colon", "value": 1.45, "unit": "µM"},
      {"measurement": "GI50", "setting": "DU-145 prostate", "value": 5.49, "unit": "µM"},
      {"measurement": "GI50", "setting": "HCC-2998 colon", "value": 13.6, "unit": "µM"},
      {"measurement": "GI50", "setting": "HCT-116 colon", "value": 3.94, "unit": "µM"},
      {"measurement": "GI50", "setting": "HCT-15 colon", "value": 5.28, "unit": "µM"},
      {"measurement": "GI50", "setting": "HL-60(TB) leukemia", "value": 11, "unit": "µM"},
      {"measurement": "GI50", "setting": "HOP-62 NSCLC", "value": 13.6, "unit": "µM"},
      {"measurement": "GI50", "setting": "HS 578T breast", "value": 12.1, "unit": "µM"},
      {"measurement": "GI50", "setting": "HT29 colon", "value": 7.03, "unit": "µM"},
      {"measurement": "GI50", "setting": "IGROV1 ovarian", "value": "> 30.6", "unit": "µM"},
      {"measurement": "GI50", "setting": "K-562 leukemia", "value": 18.7, "unit": "µM"},
      {"measurement": "GI50", "setting": "KM12 colon", "value": 6.5, "unit": "µM"},
      {"measurement": "GI50", "setting": "LOX IMVI melanoma", "value": 17.1, "unit": "µM"},
      {"measurement": "GI50", "setting": "M14 melanoma", "value": 65.7, "unit": "µM"},
      {"measurement": "GI50", "setting": "MALME-3M melanoma", "value": 85.5, "unit": "µM"},
      {"measurement": "GI50", "setting": "MCF7 breast", "value": 2.58, "unit": "µM"},
      {"measurement": "GI50", "setting": "MDA-MB-231 breast", "value": "> 89.7", "unit": "µM"},
      {"measurement": "GI50", "setting": "MDA-MB-435 melanoma", "value": 16.8, "unit": "µM"},
      {"measurement": "GI50", "setting": "MDA-MB-468 breast", "value": 41.8, "unit": "µM"},
      {"measurement": "TGI", "setting": "MDA-MB-468 breast", "value": "> 86.2", "unit": "µM"},
      {"measurement": "GI50", "setting": "MOLT-4 leukemia", "value": 1.64, "unit": "µM"},
      {"measurement": "TGI", "setting": "MOLT-4 leukemia", "value": 3.26, "unit": "µM"},
      {"measurement": "GI50", "setting": "NCI-H23 lung", "value": 29.6, "unit": "µM"},
      {"measurement": "GI50", "setting": "NCI-H322M lung", "value": 32.7, "unit": "µM"},
      {"measurement": "GI50", "setting": "NCI-H460 NSCLC", "value": 3.23, "unit": "µM"},
      {"measurement": "TGI", "setting": "NCI-H460 NSCLC", "value": 38.8, "unit": "µM"},
      {"measurement": "GI50", "setting": "NCI-H522 lung", "value": 55.6, "unit": "µM"},
      {"measurement": "GI50", "setting": "OVCAR-3 ovarian", "value": 6.27, "unit": "µM"},
      {"measurement": "TGI", "setting": "OVCAR-3 ovarian", "value": "> 86.5", "unit": "µM"},
      {"measurement": "GI50", "setting": "OVCAR-5 ovarian", "value": 13.1, "unit": "µM"},
      {"measurement": "GI50", "setting": "OVCAR-8 ovarian", "value": 37.2, "unit": "µM"},
      {"measurement": "GI50", "setting": "PC-3 prostate", "value": "> 80.5", "unit": "µM"},
      {"measurement": "GI50", "setting": "RPMI-8226 leukemia", "value": 0.162, "unit": "µM"},
      {"measurement": "TGI", "setting": "RPMI-8226 leukemia", "value": 0.476, "unit": "µM"},
      {"measurement": "GI50", "setting": "RXF 393 renal", "value": 27.7, "unit": "µM"},
      {"measurement": "GI50", "setting": "SF-268 CNS", "value": 45.2, "unit": "µM"},
      {"measurement": "GI50", "setting": "SF-295 CNS", "value": 22, "unit": "µM"},
      {"measurement": "GI50", "setting": "SF-539 CNS", "value": 4.2, "unit": "µM"},
      {"measurement": "GI50", "setting": "SK-MEL-28 melanoma", "value": 19.3, "unit": "µM"},
      {"measurement": "GI50", "setting": "SK-MEL-5 melanoma", "value": 5.77, "unit": "µM"},
      {"measurement": "GI50", "setting": "SK-OV-3 ovarian", "value": "> 69.9", "unit": "µM"},
      {"measurement": "GI50", "setting": "SN12C renal", "value": 14.5, "unit": "µM"},
      {"measurement": "GI50", "setting": "SNB-19 CNS", "value": 51.7, "unit": "µM"},
      {"measurement": "GI50", "setting": "SNB-75 CNS", "value": 7.12, "unit": "µM"},
      {"measurement": "TGI", "setting": "SNB-75 CNS", "value": "> 29.7", "unit": "µM"},
      {"measurement": "GI50", "setting": "SR leukemia", "value": 2, "unit": "µM"},
      {"measurement": "TGI", "setting": "SR leukemia", "value": 6.89, "unit": "µM"},
      {"measurement": "GI50", "setting": "SW-620 colon", "value": 25, "unit": "µM"},
      {"measurement": "GI50", "setting": "T-47D breast", "value": 78.3, "unit": "µM"},
      {"measurement": "GI50", "setting": "TK-10 renal", "value": 35.1, "unit": "µM"},
      {"measurement": "GI50", "setting": "U251 glioblastoma", "value": 22, "unit": "µM"},
      {"measurement": "GI50", "setting": "UACC-62 melanoma", "value": 8.73, "unit": "µM"},
      {"measurement": "GI50", "setting": "UO-31 renal", "value": 8.23, "unit": "µM"}
    ]}
  ]
}
